In patent US20100266503A1, “Breast Cancer Methods, Medicaments and Agents” (priority 2007, published 2010):
Non-standard residues stand in square brackets, D forms with d. Residues, ends and D or L forms follow the SMILES beside them. *: point of attachment. Nle = CCCC[C@H](N)C(=O)O; Cbz = O=C(OCc1ccccc1)*

Tests used:
Format in all cases: cell-based
[1] = system: MDA-MB-231, T47-D and MCF-7 breast cancer cell lines; test: Proliferation of breast cancer cell lines treated with GSIs for 72 h, Coulter Counter cell count; conditions: tested 10 nM to 50 μM
Protocol: Graphs illustrating the effects of three GSIs: (A) DAPT (N-[N-(3,5-Difluorophenacetyl-L-alanyl)]-S-phenylglycine t-butyl ester), (B) Compound E ((2S)-2-{[(3,5-Difluorophenyl)acetyl]amino}-N-[(3S)-1-methyl-2-oxo-5-phenyl-2,3-dihydro-1H-1,4-benzodiazepin-3-yl]propanamide) and (C) GSI1 (Z-Leu-Leu-Nle-CHO) on proliferation in three breast cancer cell lines (MDA-MB-231, T47-D and MCF-7 cells). Cells were treated with the GSIs at different concentrations for 72 hours and the number of cells counted.
FIG. 6 illustrates the effect of three GSIs, DAPT, Compound E and GSI1 on proliferation in three breast cancer cell lines, MDA-MB-231 [Oestrogen receptor (ER) negative, epidermal growth factor receptor (EGFR) and HER-2 strongly positive, increasingly metastatic T47-D-MCF-MDA], T47-D [weakly ER positive, progesterone receptor positive, strongly EGFR (HER-1, cERB-B1) positive and HER-2(c-ERB-B2) positive] and MCF-7 [highly ER positive and very weakly EGFR and HER-2 positive if at all]. The breast cancer cell lines were treated with the 3 GSIs for 72 h. 20,000 cells were seeded into 24 well plates in triplicate and allowed to adhere overnight. […] After 72 hours the media was removed and the adherent cells removed and counted on a Coulter Counter. […]

[2] = system: MCF-7, T47D, ZR-75-1, MDA-MB-231 and Cal-51 breast cancer cell lines; test: Sulphorhodamine B Assay (SRB) of GSI1 on breast cancer cell lines
Text: Graphs illustrating the effects of GSI1, at different concentrations, on proliferation in five breast cancer cell lines: (A) MCF-7 cells, (B) T47D cells, (C) ZR-75-1 cells, (D) MDA-MB-231 cells and (E) Cal- 51 cells.
The effect of GSI1 on cell proliferation was investigated further in a range of breast cancer cell lines, including both oestrogen receptor positive and negative cell lines, using the Sulphorhodamine B Assay (SRB) to measure cell numbers as illustrated in FIG. 7. […] 6,000 cells were plated in 6 replicates and allowed to adhere overnight. The media was replaced the following day with media containing GSI1 at different concentrations (100 nM, 250 nM, 500 nM, 750 nM, 1 μM, 2 μM, 5 μM, and 10 μM) apart from the control which was media+dimethyl sulphoxide (the solvent for GSI1 at a concentration equal to the highest in the GSI1 treated wells). One plate of cells was subjected to the Sulphorhodamine B Assay (SRB), which […] is an accepted measure of cell numbers, on this day, day 0. Briefly, cells were fixed by adding 100 μl/well of ice-cold 40% Trichloroacetic acid to each well and leaving for 60 mins. Plates were washed 5 times in running tap water (allowing water to fill wells indirectly) and stained with 100 μl/well SRB reagent (0.4% w/v SRB [Sigma-s-9012] in 1% Acetic acid) for 30 mins. Plates were washed 5 times in 1% acetic acid and left overnight to dry before solubilizing with 100 μl/well 10 mM Tris-base. Plates were subject to shaking for 30 mins and absorbance read at 492 nm. The remaining plates were then assayed at 2-day intervals up to day 10. […] Thus, it was evident that irrespective of the cell characteristics that 1 μM and higher concentrations were an effective killing dose and doses as low as 250 nM were inhibitory to cell proliferation.

[3] = system: L226U19 and L226TS4 cells; test: SRB proliferation of GSI1 on normal L226 cell lines; conditions: tested at 10-80 μM; the two L226 cell lines
Protocol: Graphs illustrating the effects of GSI1, at different concentrations, on proliferation in four normal cell lines: (A) MCF-10A cells, (B) MCF-10A, (C) L226U19 cells and (D) L226TS4 cells.
The effect of GSI1 on proliferation in normal cell lines was investigated as, illustrated in FIG. 8. […] Therefore we repeated in all 3 normal lines (MCF-10A, L226U19 and L226TS4) at much higher concentrations (10 μM, 20 μM, 40 μM, 60 μM and 80 μM). 10 μM GSI1 was required to kill the MCF-10A cells and over 40 μM GSI1 was required to kill the two L226 cell lines. MCF-10A cells were cultured in DMEM (Invitrogen 11995-040), […] Insulin (Sigma, 11882), 20 ng/ml hEGF (Trevigen, 3443-050-01), 100 ng/ml Cholera Toxin (Sigma, C8052), 500 ng/ml Hydrocortisone (Sigma, H0888), 5% Horse Serum +100U/m1 penicillin, 0.1 mg/ml streptomycin, 2 mM L-glutamine at 37° C. in 5% CO2. L226U19 and TS4 cells were cultured in DME: F12 plus 10% FCS, 5 μg/ml insulin, 1 μg/ml Hydrocortisone, 10 ng/ml hEGF, 10 ng/ml Cholera toxin 100 U/ml penicillin, 0.1 mg/ml streptomycin, 2 mM L-glutamine at 37° C. in 5% CO2.

[4] = system: GS components, Notch 1, Actin and Lamin A/C in a single breast cancer cell line; test: Western blot of protein levels after GSI1; conditions: 750 nM GSI1 vs DMSO control
Protocol: Western blot analysis of GS components, Notch 1, Actin and Lamin A/C in response to DMSO control (1) or 750 nm GSI1 (2). Tubulin was used as a loading control.
FIG. 10 illustrates the effect of GSI1 on the protein levels of the GS components and of Notch 1, Actin and Lamin A/C in a single breast cancer cell line. Shown, are Western blots of the proteins in reponse to treatment with GSI1 (750 nM) or DMSO control. All antibodies were from Abcam unless otherwise stated. Notch1 (Mouse) 1:500, Nicastrin rabbit 1:500, Pen-2 rabbit 1:1000, Presenilin, Goat 1:200, APH-1A Rabbit, 1:500, APH-1B Rabbit, 1:1000, Actin Mouse, 1:20,000(Santa Cruz), Tubulin, Mouse, 1:1000 (Sigma), Lamin NC 1:5000 (Santa Cruz). Secondary Antibodies used were goat anti mouse horseradish peroxidase (Sigma) 1:5000, goat anti-rabbit horseradish peroxidase (Sigma 1:10000) and donkey anti-goat horseradish peroxidase (Sigma 1:5000). Although GSI1 had some effects on protein expression these were marginal apart from Notch 1.

CCCC[C@@H](C=O)NC(=O)[C@H](CC(C)C)NC(=O)[C@H](CC(C)C)NC(=O)OCc1ccccc1 [GSI1, Z-Leu-Leu-Nle-CHO] (Cbz-Leu-Leu-[Nle]-aldehyde)
concentration that virtually eliminates all the cells [1]: 1 µM
effect of the 1 μM treatment on cell numbers ([2]; 1 μM, each cell line, assayed up to day 10): greatly reduced cell numbers
effective killing dose ([2]; irrespective of cell characteristics, up to day 10): ≥ 1 µM
concentration effective at killing / lethal to breast cancer cell lines ([2]; summary statement): 1 µM
lowest dose inhibitory to cell proliferation ([2]; up to day 10): 250 nM
concentration required to kill the cells [3]: over 40 μM
Notch 1 protein expression [4]: markedly upregulated
protein expression other than Notch 1 (GS components, Actin, Lamin A/C) [4]: only marginal effects on protein expression
